Like-named read-outs stand apart in the source and are kept apart here.
Key:
[1] = Proton dissociation constants of the coordinated water in [M(arene)(N,N/O)(H2O)]2+/+ complexes (UV-vis titration)
Source text: The proton dissociation of the aqua ligand in the [M(arene)(N,N/O)(H2O)]^2+/+ complexes (Scheme 2) results in the inert mixed-hydroxido species (general formula: [M(arene)(N,N/O)(OH)]^+/0).

[2] = Computed fractions of mixed-ligand complexes as function of pH from formation constants; format: physicochemical; details: for difference in computed fraction (dissociated) when pH decreases from 7.4 to 6.0: 100 μM, ratio 1:1; for fraction of the active form (computed): pH 6.0
Procedure: With the help of these formation constants, the extent of complex formation can be estimated for a chosen monodentate ligand—complex chemical system under the desired conditions (concentration and pH). Figure 6 and Figure S25 show the computed fractions of the formed, mixed-ligand complexes between pH = 5 and 8 and at a 100 μM concentration (metal complex-to-monodentate ligand ratio = 1:1). The fraction at pH = 7.4 and at pH 6.0–6.7 were compared to each other.
As an example, the fractions of [Ru(p-cym)(8HQH−1)(mim)]^+ are shown in Figure S26 with decreasing concentration.
Formation constants shown in Figure 5 and in Table S2 were used for the calculation. Percentages indicate the fraction at pH = 7.4 (blue line) and in the range between pH = 6.0–6.7 (pink rectangle: possible pH of tumor microenvironment during acidosis).

[3] = tested on: E. coli 32313 (resistant); assay: Antibacterial assay, MIC in 96-well plates at different pH; format: cell-based; details: E. coli resistant, after one day, read-out: MIC
Source text: (§1) The antibacterial effect was studied in two Gram-positive and in two Gram-negative strains. The Gram-positive S. aureus ATCC 25923 (ATCC, Manassas, VA, USA) is a methicillin-susceptible reference bacterial strain, while S. aureus 272123 is a clinical isolate and resistant to methicillin and ofloxacin (MRSA), which was given by Prof. Dr. Leonard Amaral (Institute of Hygiene and Tropical Medicine, Lisbon, Portugal). The Gram-negative strains were E. coli ATCC 25922 (ATCC, Manassas, VA, USA), which is sensitive to antibiotics, and E. coli 32313 (provided by the Institute of Clinical Microbiology, University of Szeged, Hungary), which is resistant to different antibiotics (trimethoprim/sulfamethoxazole, gentamicin, ciprofloxacin, and norfloxacin).
(§2) The minimum inhibitory concentrations (MICs) of the compounds were determined in 96-well plates based on the Clinical and Laboratory Standard Institute guidelines. The compounds were diluted in 100 μL of Mueller Hinton broth. Then, an overnight bacterial culture diluted 10,000 times in 100 μL of medium was added to each well, with the exception of the medium control wells. For each strain and each tested compound, four pH values were set (5, 6, 7, and 8). Each sample was triplicated.

[4] = tested on: S. aureus 272123 (MRSA); assay: as above; format: cell-based; details: read-out: MIC
Source text: as §1, §2

[5] = tested on: E. coli ATCC 25922 (sensitive); assay: as above; format: cell-based; details: E. coli sensitive, after one day, read-out: MIC
Source text: as §1, §2

[6] = tested on: S. aureus ATCC 25923 (methicillin-susceptible); assay: as above; format: cell-based; details: S. aureus sensitive, after one day, read-out: MIC
Source text: as §1, §2

[7] = Formation constants of mixed-ligand half-sandwich complexes (UV-vis and 1H NMR); format: physicochemical; details: aqua complex + monodentate ligand; I = 0.10 M (KCl); t = 25.0 °C; UV-vis and 1H NMR
Procedure: NMR spectroscopic studies were carried out on a Bruker Avance III HD Ascend 500 Plus instrument. For the aqueous samples, ^1H NMR spectra were recorded with the WATERGATE water suppression pulse scheme using DSS internal standard. The highest peak of DSS was 0.00 ppm. The measurement was very similar to the UV-vis measurement since the complex–to–monodentate ligand ratio was also between 0–10 equivalents; the spectra were recorded after the given waiting time. […] This technique was useful in those cases where no spectral change was visible during the UV-vis titrations.
In both measurement methods, the formation constant (K) was obtained using the computer program PSEQUAD [38].
It is worthwhile to mention that the liberation of the bidentate ligand was not detected even at higher monodentate ligand excess (~10), which means that the disruption of the bond between the bidentate ligand and the metal center is not feasible under these conditions. The calculated formation constants are compared in Figure 5 and are collected in Table S2. The formation of the mixed-ligand complexes was not detected in three cases under the applied conditions, namely [Ru(p-cym)(en)(mim)]^2+, [Ru(p-cym)(phen)(mim)]^2+, and [Ru(p-cym)(en)(Py)]^2+. For these complexes, only a higher limit of the formation constant could be given, assuming that a maximum of 5% of the complex would form (limit of detection) under the conditions used for ^1H NMR spectroscopy. Based on Figure 5, the following trends are observed in the formation constants: (i) [RhCp*(en)(H2O)]^2+ and [RhCp*(phen)(H2O)]^2+ have a stronger monodentate ligand-binding ability than the Ru(p-cym) analogs; (ii) the formation constants of the [Ru(p-cym)(8HQH-1)(N)]^+ complexes are similar or somewhat higher than those of the RhCp* analogs; (iii) a stability trend for the monodentate ligand: mim > bim > Py (iv) and the bidentate ligand: 8HQH-1 > phen ≥ en can be seen.

[8] = tested on: Colo320 human colon adenocarcinoma cell line (doxorubicin-resistant); assay: MTT assay, cytotoxicity at pH 6 and 7; format: cell-based; details: Colo320, 72 h incubation, read-out: IC50
Procedure: (§3) All cell culture reagents were obtained from Sigma-Aldrich (Merck KGaA, Darmstadt, Germany) and plasticware from Sarstedt (Nümbrecht, Germany). Human colonic adenocarcinoma cell lines Colo205 (catalog number: ATCC-CCL-222) and its doxorubicin-resistant counterpart Colo320 (catalog number: ATCC-CCL-220.1) were purchased from LGC Promochem (Teddington, UK). The cells were cultured in RPMI 1640 medium supplemented with 10% heat-inactivated fetal bovine serum, 2 mM L-glutamine, 1 mM sodium pyruvate, and 100 mM HEPES buffer, adjusting the pH to 6.0 or 7.0. The cells were incubated at 37 °C in a 5% CO2–95% air atmosphere. The semiadherent human colon cancer cells were detached with Trypsin-Versene solution for 5 min at 37 °C.
(§4) The solutions were freshly prepared prior to measurements (see Section 2.1). […] Firstly, these samples were diluted in complete culture medium; then, two-fold serial dilutions of the compounds were prepared in 100 μL of RPMI 1640, horizontally. The semiadherent colonic adenocarcinoma cells were treated with Trypsin-Versene solution. They were adjusted to a density of 1 × 10^4 cells in 100 μL of RPMI 1640 medium and were added to each well, with the exception of the medium control wells. The final volume of the wells containing compounds and cells was 200 μL. Samples were triplicated. The pH of the medium was adjusted to 6.0 or 7.0.
(§5) The culture plates were incubated at 37 °C for 72 h; at the end of the incubation period, 20 μL of MTT solution (from a stock solution of 5 mg/mL) was added to each well. After incubation at 37 °C for 4 h, 100 μL of SDS solution (10% in 0.01 M HCI) was added to each well, and the plates were further incubated at 37 °C overnight. Cell growth was determined by measuring the optical density (OD) at 540/630 nm with a Multiscan EX ELISA reader (Thermo Labsystems, Cheshire, WA, USA). […] Curves were fitted using GraphPad Prism software (2022, version 9.4.1, Graphpad Software (LLC) d.b.a Dotmatics, San Diego, CA, USA) using the sigmoidal dose–response model (comparing variable and fixed slopes).
(§6) The pH-dependent solution speciation of the selected mixed-ligand complexes is an important feature in the hypothesized mechanism of action, and the modeling of acidosis is necessary for the in vitro anticancer assays. In order to find out the cytotoxicity difference based on the pH of the medium, cytotoxic activity was determined at pH 6 and 7 by MTT assay in two human colon adenocarcinoma cell lines (doxorubicin-sensitive Colo205 and doxorubicin-resistant Colo320). […] The mixed-ligand complexes were prepared prior to the measurements, as was already described in Section 2.1. With this method, the effect of the different counter ions could be avoided, and a more adequate comparison of the mixed-ligand complexes could be conducted.

[9] = tested on: Colo205 human colon adenocarcinoma cell line (doxorubicin-sensitive); assay: MTT assay, cytotoxicity at pH 6 and 7; format: cell-based; details: Colo205, 72 h incubation, read-out: IC50
Procedure: as §3, §4, §5, §6

[10] = I = 0.10 M (KCl), t = 25.0 °C, UV-vis
[11] = pH 6, listed as [RhCp*(phen)Cl]Cl +mim
[12] = pH 7, listed as [RhCp*(phen)Cl]Cl +mim
[13] = pH 6, listed as [RhCp*(8HQH-1)Cl] +mim
[14] = pH 7, listed as [RhCp*(8HQH-1)Cl] +mim

Q: For `Cc1ccc(C(C)C)cc1.O.[O-]c1cccc2cccnc12.[Ru+2]` [[Ru(p-cym)(8HQH-1)(H2O)]+], which “pKa of the coordinated water molecule” value [1, 10] is on record?
A: 9.31±0.01

Q: For `Cc1c(C)c(C)[c-](C)c1C.Cn1ccnc1.[Rh+3].c1cnc2c(c1)ccc1cccnc12` [[RhCp*(phen)(mim)]^2+], which “difference in computed fraction (dissociated) when pH decreases from 7.4 to 6.0” value [2] is on record?
A: 25%

Q: And the MIC ([3]; pH 5)?
A: > 100 µM

Q: And the MIC [3, 11]?
A: >100 µM

Q: What about the MIC [3, 12] of the same molecule?
A: >100 µM

Q: And the MIC ([3]; pH 8)?
A: > 100 µM

Q: What about the MIC ([4]; pH 5, after one day) of the same molecule?
A: > 100 µM

Q: What about the MIC ([4]; pH 6, after one day, listed as [RhCp*(phen)Cl]Cl +mim) of the same molecule?
A: >100 µM

Q: And the MIC ([4]; pH 7, after one day, listed as [RhCp*(phen)Cl]Cl +mim)?
A: >100 µM

Q: What about the MIC ([4]; pH 8, after one day) of the same molecule?
A: > 100 µM

Q: And the MIC ([5]; pH 5)?
A: > 100 µM

Q: What about the MIC [5, 11] of the same molecule?
A: >100 µM

Q: What about the MIC [5, 12] of the same molecule?
A: >100 µM

Q: And the MIC ([5]; pH 8)?
A: > 100 µM

Q: And the MIC [6, 12]?
A: >100 µM

Q: And the MIC ([6]; pH 8)?
A: > 100 µM

Q: And the “Formation constant logK of mixed-ligand complex” value (“Formation constant logK” for short) [7]?
A: 5.5 ± 0.1

Q: Which “difference in computed fraction (dissociated) when pH decreases from 7.4 to 6.0” value [2] does the source give for `Cc1c(C)c(C)[c-](C)c1C.Cn1ccnc1.[O-]c1cccc2cccnc12.[Rh+3]` [[RhCp*(8HQH−1)(mim)]^+] here?
A: 13%

Q: What about the MIC ([3]; pH 5) of the same molecule?
A: > 100 µM

Q: And the MIC [3, 13]?
A: >100 µM

Q: And the MIC [3, 14]?
A: >100 µM

Q: What about the MIC ([3]; pH 8) of the same molecule?
A: > 100 µM

Q: And the MIC ([4]; pH 5, after one day)?
A: 50 µM

Q: And the MIC ([4]; pH 6, after one day)?
A: 25 µM

Q: And the MIC ([4]; pH 7, after one day)?
A: 12.5 µM

Q: What about the MIC ([4]; pH 8, after one day) of the same molecule?
A: 12.5 µM

Q: And the MIC ([5]; pH 5)?
A: > 100 µM

Q: And the MIC [5, 13]?
A: >100 µM

Q: What about the MIC [5, 14] of the same molecule?
A: >100 µM

Q: What about the MIC ([5]; pH 8) of the same molecule?
A: > 100 µM

Q: And the MIC ([6]; pH 7)?
A: 12.5 µM

Q: What about the MIC ([6]; pH 8) of the same molecule?
A: 12.5 µM

Q: What about the “Formation constant logK” value [7] of the same molecule?
A: 4.7 ± 0.2

Q: Which “difference in computed fraction (dissociated) when pH decreases from 7.4 to 6.0” value [2] does the source give for `Cc1ccc(C(C)C)cc1.Cn1ccnc1.[O-]c1cccc2cccnc12.[Ru+2]` [[Ru(p-cym)(8HQH−1)(mim)]^+] here?
A: 10%

Q: What about the “fraction of the active form (computed)” value ([2]; concentration 1 mM) of the same molecule?
A: 5%

Q: And the “fraction of the active form (computed)” value ([2]; concentration two orders of magnitude below 1 mM)?
A: 41%

Q: Which “pKa of the coordinated water molecule” value [1] does the source give for `Cc1c(C)c(C)[c-](C)c1C.O.[O-]c1cccc2cccnc12.[Rh+3]` [[RhCp*(8HQH-1)(H2O)]+] here?
A: 10.6±0.1

Q: For `Cc1ccc(C(C)C)cc1.NCCN.O.[Ru+2]` [[Ru(p-cym)(en)(H2O)]2+], which “pKa of the coordinated water molecule” value [1, 10] is on record?
A: 9.03±0.01

Q: For `Cc1ccc(C(C)C)cc1.O.[Ru+2].c1cnc2c(c1)ccc1cccnc12` [[Ru(p-cym)(phen)(H2O)]2+], which “pKa of the coordinated water molecule” value [1, 10] is on record?
A: 8.91±0.01

Q: With `Cc1c(C)c(C)[c-](C)c1C.[Cl-].[Rh+2][O]c1cccc2cccnc12.c1ccncc1` [[RhCp*(8HQH−1)Cl] +Py] as the molecule, how does the IC50 ([8]; pH 6) read?
A: 6.2 ± 0.5 µM

Q: And the IC50 ([8]; pH 7)?
A: 5.9 ± 0.1 µM

Q: What about the IC50 ([9]; pH 6) of the same molecule?
A: 7.2 ± 0.4 µM

Q: And the IC50 ([9]; pH 7)?
A: 7.3 ± 0.3 µM

Q: What about the MIC ([3]; pH 6) of the same molecule?
A: >100 µM

Q: What about the MIC ([3]; pH 7) of the same molecule?
A: >100 µM

Q: What about the MIC ([4]; pH 6, after one day) of the same molecule?
A: 50 µM

Q: What about the MIC ([4]; pH 7, after one day) of the same molecule?
A: 12.5 µM

Q: And the MIC ([5]; pH 6)?
A: >100 µM

Q: And the MIC ([5]; pH 7)?
A: >100 µM

Q: And the MIC ([6]; pH 7)?
A: 12.5 µM

Q: And the “Formation constant logK” value [7]?
A: 3.0 ± 0.1

From article PMC9964319, “Half-Sandwich Rhodium Complexes with Releasable N-Donor Monodentate Ligands: Solution Chemical Properties and the Possibility for Acidosis Activation” (Pharmaceutics, 2023)
